Reference: ChEMBL document CHEMBL5678803, “Selective blockade of TRPA1 channel attenuates pathological pain without altering noxious cold sensation or body temperature regulation” (Pain, 2011)
Active and inactive are the calls of the source. No cut-off for these calls is given here.

What was measured:
[1] = Chemical reactivity of compound to La antigen incubated overnight by LC-MS analysis; assay type: physicochemical
[2] = molecular target: Transient receptor potential cation channel subfamily A member 1 (Mus musculus, UniProt Q8BLA8); experiment: Antagonist activity at mouse TRPA1 expressed in HEK293F cells assessed as reduction in AITC-induced increase in intracellular Ca2+ level by FLIPR-based Ca2+ assay; assay type: cell-based
[3] = molecular target: T1, Transient receptor potential cation channel subfamily V member 3 (Homo sapiens) (UniProt Q8NET8); experiment: Activation of endogenous TRPV3 in human epithelial cells upto 100 micromol/L; assay type: cell-based; conditions: Epithelial cell, dose <= 100.0 µmol/L
T1 sequence (whole entry): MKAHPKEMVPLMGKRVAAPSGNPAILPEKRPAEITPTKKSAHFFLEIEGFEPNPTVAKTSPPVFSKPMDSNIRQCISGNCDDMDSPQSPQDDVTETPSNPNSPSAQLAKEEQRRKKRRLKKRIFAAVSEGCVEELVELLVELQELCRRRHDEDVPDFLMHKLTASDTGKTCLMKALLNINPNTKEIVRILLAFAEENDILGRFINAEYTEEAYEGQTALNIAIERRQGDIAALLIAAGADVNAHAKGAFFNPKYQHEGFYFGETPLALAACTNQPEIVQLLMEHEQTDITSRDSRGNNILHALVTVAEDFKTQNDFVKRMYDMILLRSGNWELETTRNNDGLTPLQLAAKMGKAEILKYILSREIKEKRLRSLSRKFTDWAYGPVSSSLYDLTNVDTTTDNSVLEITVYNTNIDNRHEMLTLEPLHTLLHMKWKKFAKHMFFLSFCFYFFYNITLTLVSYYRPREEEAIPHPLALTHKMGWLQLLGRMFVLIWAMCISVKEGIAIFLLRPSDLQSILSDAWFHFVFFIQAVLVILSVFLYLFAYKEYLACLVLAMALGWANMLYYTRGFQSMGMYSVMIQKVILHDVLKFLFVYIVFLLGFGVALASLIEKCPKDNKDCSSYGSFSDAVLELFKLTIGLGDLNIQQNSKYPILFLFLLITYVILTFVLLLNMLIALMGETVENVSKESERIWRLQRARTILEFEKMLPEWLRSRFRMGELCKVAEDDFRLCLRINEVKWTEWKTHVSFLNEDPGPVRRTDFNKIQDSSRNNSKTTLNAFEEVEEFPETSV

[4] = molecular target: Transient receptor potential cation channel subfamily V member 4 (Homo sapiens, UniProt Q9HBA0); experiment: Activation of human TRPV4 expressed in HEK293F cells upto 100 micromol/L; assay type: cell-based; conditions: dose <= 100.0 µmol/L
[5] = molecular target: Transient receptor potential cation channel subfamily M member 8 (Homo sapiens, UniProt Q7Z2W7); experiment: Activation of human TRPM8 expressed in HEK293F cells upto 100 micromol/L; assay type: cell-based; conditions: dose <= 100.0 µmol/L
[6] = molecular target: T2, Transient receptor potential cation channel subfamily V member 2 (Rattus norvegicus) (UniProt Q9WUD2); experiment: Activation of rat TRPV2 expressed in HEK293F cells upto 100 micromol/L; assay type: cell-based; conditions: dose <= 100.0 µmol/L
T2 sequence (whole entry): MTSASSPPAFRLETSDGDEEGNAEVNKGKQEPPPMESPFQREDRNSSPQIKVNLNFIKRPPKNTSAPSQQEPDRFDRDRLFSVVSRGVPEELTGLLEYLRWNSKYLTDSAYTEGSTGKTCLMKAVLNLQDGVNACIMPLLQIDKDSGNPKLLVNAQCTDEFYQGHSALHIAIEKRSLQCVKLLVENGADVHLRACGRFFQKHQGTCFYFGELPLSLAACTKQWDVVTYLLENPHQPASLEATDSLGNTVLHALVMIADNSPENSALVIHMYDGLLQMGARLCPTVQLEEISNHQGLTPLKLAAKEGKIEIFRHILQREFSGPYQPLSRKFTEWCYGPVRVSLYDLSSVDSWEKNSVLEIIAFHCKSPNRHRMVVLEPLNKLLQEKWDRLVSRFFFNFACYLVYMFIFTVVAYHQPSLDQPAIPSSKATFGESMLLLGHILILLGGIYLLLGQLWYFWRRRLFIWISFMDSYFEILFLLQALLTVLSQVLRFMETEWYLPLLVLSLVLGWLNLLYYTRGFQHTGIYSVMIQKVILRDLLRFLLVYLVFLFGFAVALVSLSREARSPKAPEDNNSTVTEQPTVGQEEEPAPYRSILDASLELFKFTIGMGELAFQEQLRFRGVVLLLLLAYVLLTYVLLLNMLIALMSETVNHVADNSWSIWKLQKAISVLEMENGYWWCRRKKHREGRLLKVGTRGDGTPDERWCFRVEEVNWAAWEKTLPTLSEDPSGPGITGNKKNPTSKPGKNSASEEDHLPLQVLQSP

[7] = molecular target: T3, Transient receptor potential cation channel subfamily V member 1 (Homo sapiens, UniProt Q8NER1); experiment: Antagonist activity at human TRPV1 expressed in HEK293F cells assessed as inhibition of capsaicin-induced increase in intracellular Ca2+ level by FLIPR-based Ca2+ assay; assay type: cell-based
[8] = molecular target: T4, Transient receptor potential cation channel subfamily V member 3 (Homo sapiens, UniProt Q8NET8); experiment: Antagonist activity at endogenous TRPV3 in human epithelial cells assessed as inhibition of 2APB-induced increase in intracellular Ca2+ level by FLIPR-based Ca2+ assay; assay type: cell-based, Epithelial cell
T4 sequence (Q8NET8 whole entry): T1 sequence (whole entry)

[9] = molecular target: T3, Transient receptor potential cation channel subfamily V member 1; experiment: Antagonist activity at human TRPV1 expressed in HEK293F cells assessed as inhibition of capsaicin-induced TRPV1 channel activation by FLIPR-based Ca2+ assay relative to control; assay type: cell-based; conditions: concentration not given here
[10] = molecular target: Sodium-dependent noradrenaline transporter (Homo sapiens) (UniProt P23975); experiment: Inhibition of norepinephrine transporter (unknown origin) at 10 micromol/L by radioligand binding assay; conditions: dose 10.0 µmol/L
[11] = molecular target: Melatonin receptor type 1A (Homo sapiens) (UniProt P48039); experiment: Inhibition of MT1 receptor (unknown origin) at 10 micromol/L by radioligand binding assay; conditions: dose 10.0 µmol/L
[12] = molecular target: Transient receptor potential cation channel subfamily A member 1 (Rattus norvegicus) (UniProt Q6RI86); experiment: Antagonist activity at endogenous TRPA1 in rat DRG neurons assessed as blockade of bradykinin-induced CGRP release at 5 micromol/L; assay type: cell-based; conditions: DRG neuron, filed as antagonist, dose 5.0 µmol/L
[13] = molecular target: Transient receptor potential cation channel subfamily A member 1 (Rattus norvegicus) (UniProt Q6RI86); experiment: Antagonist activity at endogenous TRPA1 in rat DRG neurons assessed as blockade of capsaicin-induced CGRP release at 50 micromol/L; assay type: cell-based; conditions: DRG neuron, dose 50.0 µmol/L
[14] = Oral bioavailability in rat at 2 mg/kg; assay type: ADME, organism-based; conditions: in vivo
[15] = Drug concentration in rat at 62.1 mg/kg, po measured after 60 mins; assay type: ADME, organism-based; conditions: in vivo, read-out: Drug uptake
[16] = Effect on locomotory activity in Sprague-Dawley rat model of mustard oil-induced nocifensive response at 6.2 to 62.1 mg/kg, po administered for 1 hrs; assay type: toxicity, organism-based; conditions: in vivo, dose 6.2-62.1 mg/kg
Rattus norvegicus = experiment: Antiallodynic activity in spinal nerve ligation-induced neuropathic pain Sprague-Dawley rat model assessed as attenuation of mechanical allodynia at 6.2 to 62.1 mg/kg, po administered with compound for 1 hrs and measured 10 to 14 days after surgery; assay type: functional, organism-based; conditions: dose 6.2-62.1 mg/kg, time 241-337 hrs

Sequence of Transient receptor potential cation channel subfamily A member 1 (Rattus norvegicus) (Q6RI86 whole entry): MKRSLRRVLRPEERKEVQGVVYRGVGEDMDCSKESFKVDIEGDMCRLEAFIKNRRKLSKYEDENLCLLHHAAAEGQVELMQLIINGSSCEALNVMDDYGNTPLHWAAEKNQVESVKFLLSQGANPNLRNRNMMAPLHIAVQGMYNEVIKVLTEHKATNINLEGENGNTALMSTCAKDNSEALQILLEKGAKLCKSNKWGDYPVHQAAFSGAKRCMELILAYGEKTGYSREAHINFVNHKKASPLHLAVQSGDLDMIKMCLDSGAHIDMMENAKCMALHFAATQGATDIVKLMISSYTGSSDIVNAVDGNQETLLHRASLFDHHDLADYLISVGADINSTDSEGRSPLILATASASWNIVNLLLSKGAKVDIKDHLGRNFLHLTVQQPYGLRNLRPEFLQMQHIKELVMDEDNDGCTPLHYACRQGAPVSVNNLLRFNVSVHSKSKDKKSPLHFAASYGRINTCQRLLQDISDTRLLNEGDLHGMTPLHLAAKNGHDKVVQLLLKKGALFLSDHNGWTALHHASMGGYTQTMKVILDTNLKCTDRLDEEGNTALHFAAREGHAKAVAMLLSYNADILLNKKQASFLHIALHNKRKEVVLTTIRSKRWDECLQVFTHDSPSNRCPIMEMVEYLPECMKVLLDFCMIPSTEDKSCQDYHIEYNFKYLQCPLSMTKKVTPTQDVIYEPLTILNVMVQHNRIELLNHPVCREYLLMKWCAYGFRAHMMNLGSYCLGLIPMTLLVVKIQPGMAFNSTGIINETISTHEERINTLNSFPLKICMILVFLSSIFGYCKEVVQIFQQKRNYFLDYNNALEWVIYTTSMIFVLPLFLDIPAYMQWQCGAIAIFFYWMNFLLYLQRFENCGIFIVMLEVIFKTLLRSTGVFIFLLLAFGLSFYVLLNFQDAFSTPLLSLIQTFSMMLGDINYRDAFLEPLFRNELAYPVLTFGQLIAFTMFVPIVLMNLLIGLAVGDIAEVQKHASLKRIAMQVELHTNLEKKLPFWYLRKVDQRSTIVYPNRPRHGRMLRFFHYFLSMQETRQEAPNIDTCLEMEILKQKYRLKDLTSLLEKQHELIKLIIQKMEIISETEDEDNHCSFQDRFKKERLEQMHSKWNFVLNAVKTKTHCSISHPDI
T3 sequence (Q8NER1 whole entry): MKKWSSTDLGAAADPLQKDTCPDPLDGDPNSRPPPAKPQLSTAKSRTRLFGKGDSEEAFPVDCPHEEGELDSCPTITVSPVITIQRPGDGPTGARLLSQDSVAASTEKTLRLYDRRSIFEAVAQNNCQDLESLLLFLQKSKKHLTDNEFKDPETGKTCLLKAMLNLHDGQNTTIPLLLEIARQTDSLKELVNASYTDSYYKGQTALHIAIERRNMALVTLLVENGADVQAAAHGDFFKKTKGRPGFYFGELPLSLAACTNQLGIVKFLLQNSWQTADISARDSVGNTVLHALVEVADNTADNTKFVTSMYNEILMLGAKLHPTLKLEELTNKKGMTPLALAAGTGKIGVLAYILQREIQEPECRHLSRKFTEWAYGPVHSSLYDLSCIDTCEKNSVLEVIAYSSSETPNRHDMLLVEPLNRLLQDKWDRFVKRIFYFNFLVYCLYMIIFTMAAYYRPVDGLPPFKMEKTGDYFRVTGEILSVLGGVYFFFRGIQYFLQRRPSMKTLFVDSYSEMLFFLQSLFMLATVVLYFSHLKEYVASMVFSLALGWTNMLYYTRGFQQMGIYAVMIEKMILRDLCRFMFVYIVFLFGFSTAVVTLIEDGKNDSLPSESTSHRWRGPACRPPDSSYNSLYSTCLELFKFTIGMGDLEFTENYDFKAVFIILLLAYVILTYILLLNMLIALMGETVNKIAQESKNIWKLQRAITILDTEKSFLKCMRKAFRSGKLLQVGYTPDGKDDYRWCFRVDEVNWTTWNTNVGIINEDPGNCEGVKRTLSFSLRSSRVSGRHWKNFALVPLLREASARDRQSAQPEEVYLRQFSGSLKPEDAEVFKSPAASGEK
Sequence of Sodium-dependent noradrenaline transporter (Homo sapiens) (P23975 whole entry): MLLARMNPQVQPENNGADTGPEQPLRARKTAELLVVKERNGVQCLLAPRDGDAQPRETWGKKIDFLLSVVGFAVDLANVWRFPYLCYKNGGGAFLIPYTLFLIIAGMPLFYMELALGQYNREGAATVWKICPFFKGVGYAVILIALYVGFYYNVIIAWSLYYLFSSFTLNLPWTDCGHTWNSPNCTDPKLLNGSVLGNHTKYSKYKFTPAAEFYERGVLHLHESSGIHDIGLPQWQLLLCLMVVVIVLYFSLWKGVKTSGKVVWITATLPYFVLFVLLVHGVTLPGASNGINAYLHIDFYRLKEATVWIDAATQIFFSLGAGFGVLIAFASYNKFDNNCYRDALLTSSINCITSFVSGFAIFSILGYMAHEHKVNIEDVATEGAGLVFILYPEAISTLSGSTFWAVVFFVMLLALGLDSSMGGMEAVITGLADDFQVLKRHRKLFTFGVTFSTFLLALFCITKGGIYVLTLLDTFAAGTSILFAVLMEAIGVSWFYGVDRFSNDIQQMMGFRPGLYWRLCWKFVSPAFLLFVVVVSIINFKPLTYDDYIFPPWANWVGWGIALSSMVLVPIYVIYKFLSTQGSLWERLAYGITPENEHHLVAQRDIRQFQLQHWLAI
Sequence of Melatonin receptor type 1A (Homo sapiens) (P48039 whole entry): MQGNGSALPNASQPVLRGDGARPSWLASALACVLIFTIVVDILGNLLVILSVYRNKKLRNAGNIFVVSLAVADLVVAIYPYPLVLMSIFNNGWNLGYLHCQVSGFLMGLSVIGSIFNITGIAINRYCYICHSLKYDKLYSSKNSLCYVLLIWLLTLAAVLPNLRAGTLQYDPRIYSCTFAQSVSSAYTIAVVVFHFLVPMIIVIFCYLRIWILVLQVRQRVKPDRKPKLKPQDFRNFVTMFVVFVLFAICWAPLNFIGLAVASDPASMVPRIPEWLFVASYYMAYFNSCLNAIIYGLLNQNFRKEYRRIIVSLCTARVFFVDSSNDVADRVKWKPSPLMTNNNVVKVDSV
Sequence of Transient receptor potential cation channel subfamily A member 1 (Q8BLA8 whole entry): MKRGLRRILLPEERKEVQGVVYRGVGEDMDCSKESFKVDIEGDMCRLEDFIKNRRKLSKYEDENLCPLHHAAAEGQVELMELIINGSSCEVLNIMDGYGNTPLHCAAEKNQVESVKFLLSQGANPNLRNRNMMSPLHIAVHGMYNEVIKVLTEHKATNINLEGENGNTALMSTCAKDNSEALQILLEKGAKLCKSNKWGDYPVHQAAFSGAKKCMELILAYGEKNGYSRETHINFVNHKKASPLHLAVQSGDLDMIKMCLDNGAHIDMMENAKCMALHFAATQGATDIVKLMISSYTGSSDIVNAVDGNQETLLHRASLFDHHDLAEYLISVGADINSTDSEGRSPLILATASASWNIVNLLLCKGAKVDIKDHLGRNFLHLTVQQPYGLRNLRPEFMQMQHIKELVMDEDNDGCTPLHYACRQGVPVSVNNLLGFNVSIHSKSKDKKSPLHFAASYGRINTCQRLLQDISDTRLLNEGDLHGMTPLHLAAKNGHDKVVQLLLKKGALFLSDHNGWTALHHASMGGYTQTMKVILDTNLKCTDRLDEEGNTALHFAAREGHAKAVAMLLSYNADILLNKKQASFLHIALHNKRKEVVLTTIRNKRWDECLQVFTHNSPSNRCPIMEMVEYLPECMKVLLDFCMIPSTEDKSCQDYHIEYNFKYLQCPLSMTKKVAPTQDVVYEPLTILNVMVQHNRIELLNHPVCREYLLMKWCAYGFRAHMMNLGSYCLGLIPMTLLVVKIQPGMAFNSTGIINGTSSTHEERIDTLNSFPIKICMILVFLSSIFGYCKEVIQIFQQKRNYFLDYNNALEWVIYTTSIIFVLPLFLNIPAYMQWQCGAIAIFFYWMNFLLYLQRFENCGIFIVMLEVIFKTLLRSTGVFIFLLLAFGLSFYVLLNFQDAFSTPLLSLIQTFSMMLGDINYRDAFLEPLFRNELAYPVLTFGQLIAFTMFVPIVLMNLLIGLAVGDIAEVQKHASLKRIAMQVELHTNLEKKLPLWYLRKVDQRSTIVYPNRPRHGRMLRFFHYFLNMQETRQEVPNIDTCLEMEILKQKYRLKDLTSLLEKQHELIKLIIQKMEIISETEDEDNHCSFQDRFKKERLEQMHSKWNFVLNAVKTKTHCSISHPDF
Sequence of Transient receptor potential cation channel subfamily V member 4 (Q9HBA0 whole entry): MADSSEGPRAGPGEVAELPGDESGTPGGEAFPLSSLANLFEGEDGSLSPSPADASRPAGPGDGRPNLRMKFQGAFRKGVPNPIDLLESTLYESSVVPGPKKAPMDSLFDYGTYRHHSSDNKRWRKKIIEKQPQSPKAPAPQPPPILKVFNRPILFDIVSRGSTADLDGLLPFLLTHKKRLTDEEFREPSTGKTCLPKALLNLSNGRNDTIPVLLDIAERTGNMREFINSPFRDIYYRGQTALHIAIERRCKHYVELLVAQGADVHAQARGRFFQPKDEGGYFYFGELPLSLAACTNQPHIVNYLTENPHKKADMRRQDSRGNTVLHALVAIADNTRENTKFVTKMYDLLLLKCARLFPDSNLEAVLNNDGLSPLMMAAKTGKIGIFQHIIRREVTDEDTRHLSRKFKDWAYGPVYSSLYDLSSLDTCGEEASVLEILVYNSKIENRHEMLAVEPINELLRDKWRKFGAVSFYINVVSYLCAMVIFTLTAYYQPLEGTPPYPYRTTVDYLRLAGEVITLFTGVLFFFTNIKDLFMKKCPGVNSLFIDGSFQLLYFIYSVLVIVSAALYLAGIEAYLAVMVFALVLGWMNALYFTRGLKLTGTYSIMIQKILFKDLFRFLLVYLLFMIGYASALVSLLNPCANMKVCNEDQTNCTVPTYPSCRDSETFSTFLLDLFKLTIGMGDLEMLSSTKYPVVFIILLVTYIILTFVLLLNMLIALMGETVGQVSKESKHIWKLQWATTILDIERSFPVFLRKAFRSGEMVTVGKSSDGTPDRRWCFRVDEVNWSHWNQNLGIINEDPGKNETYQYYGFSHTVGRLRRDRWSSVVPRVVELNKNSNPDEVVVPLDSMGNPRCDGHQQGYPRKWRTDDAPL

With `CCC(=N\O)/C(C)=C/c1ccc(F)cc1` [A-079] the Stability [1] was “Stable”, the IC50 [2] was 0.296 µM and the Activity [3] was “inactive”. The Activity [4] was “inactive”, the Activity [5] was “inactive” and the Activity [6] was “inactive”. The IC50 [7] was > 100 µM, the IC50 [8] was > 100 µM and the inhibition [9] was < 20%. The inhibition [10] was 32%, the inhibition [11] was 31% and the Activity [12] was “Active”. For the same molecule, the Activity [13] was “inactive”, the bioavailability [14] was 37% and the concentration at 1 h [15] was 11.8 µM. For the same molecule, the Activity [16] was “Non-Toxic” and the Activity (Rattus norvegicus) was “inactive”.
